Measured values as given in patent EP4666996A1, “COMPOSITION CONTAINING PEPTIDES OF VEGETABLE ORIGIN” (Quiris Healthcare GmbH & Co. KG, priority 2024, dated 2025).
Read-outs that look alike come from different tables or passages of the source. No end group written: not given here.

How the values were obtained:
[1] = test system: Caco-2 cells; test: Trans-epithelial transport of digested and non-digested hydrolysates, LC-MS/MS of AP and BL samples; conditions: without H2O2; for common sequences in AP pea digested vs. BL pea digested samples: digested pea hydrolysate; for detection in the AP pea and BL pea samples: non-digested pea hydrolysate; for common sequences in BL rice digested vs. BL rice not digested samples: rice hydrolysates
Protocol: (§5) Caco-2 cells, obtained from INSERM (Paris, France) were routinely sub-cultured at 50% confluence and maintained at 37°C in a 5% CO2 atmosphere in DMEM containing 25 mM of glucose, 3.7 g/L of NaHCOs, 4 mM of stable L-glutamine, 1% non-essential amino acids, 100 U/L of penicillin and 100 µg/L of streptomycin (complete medium), supplemented with 10% heat-inactivated FBS. To facilitate the establishment of a confluent cell monolayer, cells were seeded on a Transwell at a density of 3.5 × 10^5 cells/cm^2 in complete medium supplemented with 10% FBS in both the AP and BL compartments for a period of 2 days. Cells were seeded, and on day three, they were moved to an FBS-free medium in the AP compartment. They were then allowed to differentiate for 18-21 days, with three weekly medium changes in between. Transepithelial electrical resistance (TEER) of differentiated Caco-2 cells was measured at 37 °C using the Millicell voltmeter device (Millipore Co., Billerica, MA, USA) both before and after the transport experiments for monitoring the integrity of the cell monolayers.
(§6) TEER measurement was used to verify the integrity and differentiation of the cell monolayer prior to transport experiments. Pea and rice peptides trans-epithelial transit was assessed in differentiated Caco-2 cells in transport buffer solution (137 mM NaCl, 5.36 mM KCl, 1.26 mM CaCl2, and 1.1 mM MgCl2, 5.5 mM glucose). The apical (AP) solutions were kept at pH 6.0 (buffered with 10 mM morpholinoethane sulfonic acid) and the basolateral (BL) solutions were kept at pH 7.4 (buffered with 10 mM N-2-hydroxyethylpiperazine-N-4-butanesulfonic acid) in order to replicate the pH conditions found in vivo in the small intestinal mucosa. Before the transport assay, cells were equilibrated in HBSS for 15 minutes at 37°C. In the AP compartment with the AP transport solution (500 µL) and the BL compartment with the BL transport solution (700 µL), rice and pea (5 mg/mL) were added. All BL and AP solutions were collected after two hours of absorption experiment carried out at 37°C, and they were kept at - 80°C before analysis. Transport experiments were performed in duplicate.
(§7) The enzymatic hydrolysis of pea and rice peptides was performed using pepsin and trypsin to simulate gastrointestinal digestion. For pepsin and trypsin digestion, the pH of the solution was adjusted to pH 2 and 8, respectively, by adding 1 M HCl or 1 M NaOH. The pepsin and trypsin solutions were added to the solution at a 1:100 (w/w) E/S ratio. After 60 min of peptic digestion at 37°C, pepsin was inactivated by adjusting the pH to 8; whereas the tryptic digestion (15 minutes) was blocked by heating the solution at 95 °C for 5 min (Lo et al., 2005). Collagen, pea and rice hydrolysates were passed through ultrafiltration membranes for the complete enzymes removal, using a Millipore UF system (Millipore, Bedford, MA, USA). Recovered peptides were lyophilized and stored at -80 °C for high-resolution LC-MS/MS analysis.

[2] = ABTS assay; format: biochemical
Protocol: The ABTS assay is based on the reduction of the 2,2-azino-bis-(3-ethylbenzothiazoline-6-sulfonic acid (ABTS) radical induced by antioxidants. The ABTS radical cation (ABTS+● was prepared by mixing a 7 mM ABTS solution (Sigma-Aldrich, Milan, Italy) with 2.45 mM potassium persulfate (1:1) and stored for 16 h at room temperature and in dark. To prepare the ABTS reagent, the ABTS+● was diluted in 5 mM phosphate buffer (pH 7.4) to obtain a stable absorbance of 0.700 (±0.02) at 730 nm. For the assay, 10 µL of samples were added to 140 µL of diluted the ABTS+● at the following final concentrations: 0.01 and 0.1 mg/mL for pea and rice peptides; 0.1, 1, 10 and 20 mg/mL for collagen peptides; 0.0001, 0.001 and 0.01 mg/mL for ascorbic acid; 1, 10, 25, 50, 100 µM for CR1, CP1 and CP2 peptides. The microplate was incubated for 30 min at 30 °C and the absorbance was read at 730 nm using a Synergy™ HT-multimode microplate reader (Biotek Instruments, Winooski, VT, USA). The TEAC values were calculated using a Trolox (Sigma-Aldrich, Milan, Italy) calibration curve (60-320 µM).
In this example, the antioxidant activity of pea and rice peptides was tested in vitro in an ABTS Assay as described above.
In this example, the antioxidant activity of peptides CP1, CP2 and CR1 (see Table 1 above) was tested in vitro in an ABTS Assay as described above.

[3] = FRAP assay; format: biochemical; conditions: pea and rice peptides 0.01-1 mg/mL; collagen 1-20 mg/mL; ascorbic acid 0.00001-0.1 mg/mL
[4] = test system: BJ-5ta cells; test: Cell viability assay (MTT); format: cell-based
Protocol: (§1) Fibroblast cells (BJ-5ta, CRL-4001) were cultured in complete medium, a 4:1 mixture of Dulbecco's medium and Medium 199 with supplements as 4 parts of Dulbecco's Modified Eagle's Medium containing 4 mM L-glutamine, 4.5 g/L glucose and 1.5 g/L sodium bicarbonate, 1 part of Medium 199 supplemented with 0.01 mg/mL hygromycin B 10% fetal bovine serum with incubation at 37 °C under 5% CO2 atmosphere.
A total of 10^4 fibroblasts/well were seeded in 96-well plates and treated with pea, rice and collagen peptides (from 1 to 20 mg/mL) and ascorbic acid (from 0.1 to 10 mg/mL), CR1, CR2, CP1, CP2, CP3, CP4 and CP5 peptides (from 25 to 500 µM) or H2O2 (from 0.1 to 1 mg/mL) or vehicle (H2O) in complete growth media for 48 h at 37 °C under 5% CO2 atmosphere. Subsequently, the treatment solvent was aspirated and 100 µL/well of 3-(4,5-dimethylthiazol-2-yl)-2,5-diphenyltetrazolium bromide (MTT) filtered solution added. After 2 h of incubation at 37 °C under 5% CO2 atmosphere, 0.5 mg/mL solution was aspirated and 100 µL/well of the lysis buffer (8 mM HCl + 0.5% NP-40 in DMSO) added. After 10 min of slow shaking, the absorbance at 575 nm was read on the Synergy H1 fluorescence plate reader (Biotek, Bad Friedrichshall, Germany).
In this example, the effect of pea and rice peptides was tested on BJ-5ta cells in a modified MTT assay as described above. […]

[5] = test system: Caco-2 cells
Protocol: as §5, §6, §7

[6] = FRAP assay; format: biochemical; conditions: synthesized peptides up to 200 µM
Protocol: The FRAP assay evaluates the ability of a sample to reduce ferric ion (Fe3^+) into ferrous ion (Fe2^+). Thus, 10 µL of samples were mixed with 140 µL of FRAP reagent until reaching the following concentrations: 0.01, 0.1 and 1 mg/mL for pea and rice peptides; 1, 10 and 20 mg/mL for collagen peptides; 0.00001, 0.0001, 0.001 and 0.1 mg/mL for ascorbic acid; 10, 100 and 200 µM for CR1 and CP5 peptides; 25, 50, 100 and 200 µM for CP1 and CP2 peptides. The FRAP reagent was prepared by mixing 1.3 mL of a 10 mM TPTZ (Sigma-Aldrich, Milan, Italy) solution in 40 mM HCl, 1.3 mL of 20 mM FeCl3 × 6H2O and 13 mL of 0.3 M acetate buffer (pH 3.6). The microplate was incubated for 30 min at 37 °C and the absorbance was read at 595 nm. The results were calculated by a Trolox (Sigma-Aldrich, Milan, Italy) standard curve obtained using different concentrations (3-400 µM)). Absorbances were recorded on a Synergy™ HT-multimode microplate reader.
In this example, the antioxidant activity of pea and rice peptides was tested in vitro in a FRAP Assay as described above.
In this example, the antioxidant activity of peptides CP1, CP2, CP5 and CR1 was tested in vitro in a FRAP Assay as described above.

[7] = test system: collagen; test: Western blot analysis, collagen protein level; format: cell-based
Protocol: as §1
A total of 2.2 × 10^5 BJ-5ta cells/well were seeded on 24-well plates and incubated at 37 °C under a 5% CO2 atmosphere. The following day, cells were treated with pea, rice and collagen peptides (5 mg/mL), CR1, CR2, CP1, CP4 and CP5 (250 and 500 µM), CP2 (100, 250 and 500 µM) or vehicle (H2O) in a complete growth medium for 24 h. The day after, cells were stimulated with H2O2 (200 µM) or vehicle (H2O) for 1 h. […] Total proteins were quantified by Bradford method and 50 µg of total proteins loaded on a precast 7.5% Sodium Dodecyl Sulfate - Polyacrylamide (SDS-PAGE) gel at 130 V for 45 min. […] Target proteins, on milk or BSA blocked membrane, were detected by primary antibodies as follows: anti-collagen, anti-elastin, anti-phospho(Thr172)-AMPK, anti-phospho(Ser473)-Akt, anti-NF-κB and anti-β-actin. Secondary antibodies conjugated with HRP and a chemiluminescent reagent were used to visualize target proteins and their signal was quantified using the Image Lab Software (Biorad). […]

[8] = test system: elastin; test: Western blot analysis, elastin protein level; format: cell-based
Protocol: as §1
A total of 2.2 × 10^5 BJ-5ta cells/well were seeded on 24-well plates and incubated at 37 °C under a 5% CO2 atmosphere. The following day, cells were treated with pea, rice and collagen peptides (5 mg/mL), CR1, CR2, CP1, CP4 and CP5 (250 and 500 µM), CP2 (100, 250 and 500 µM) or vehicle (H2O) in a complete growth medium for 24 h. The day after, cells were stimulated with H2O2 (200 µM) or vehicle (H2O) for 1 h. After each treatment, cells were scraped in 30 µL ice-cold lysis buffer [RIPA buffer + inhibitor cocktail + 1:100 PMSF + 1:100 Na-orthovanadate] and transferred in an ice-cold microcentrifuge tube. After centrifugation at 13.300g for 15 min at 4 °C, the supernatant was recovered and transferred into a new ice-cold tube. Total proteins were quantified by Bradford method and 50 µg of total proteins loaded on a precast 7.5% Sodium Dodecyl Sulfate - Polyacrylamide (SDS-PAGE) gel at 130 V for 45 min. Subsequently, the gel was pre-equilibrated with 0.04% SDS in H2O for 15 min at RT and transferred to a nitrocellulose membrane (Mini nitrocellulose Transfer Packs,) using a trans-Blot Turbo at 1.3 A, 25 V for 7 min. Target proteins, on milk or BSA blocked membrane, were detected by primary antibodies as follows: anti-collagen, anti-elastin, anti-phospho(Thr172)-AMPK, anti-phospho(Ser473)-Akt, anti-NF-κB and anti-β-actin. Secondary antibodies conjugated with HRP and a chemiluminescent reagent were used to visualize target proteins and their signal was quantified using the Image Lab Software (Biorad). The internal control β-actin was used to normalize loading variations. […]

[9] = test system: collagen; test: ELISA assay, collagen secretion; format: cell-based, human; conditions: peptides of Table 1, BJ-5ta cells
Protocol: (§2) Cytokines, metalloproteases, collagen and elastin quantification was performed using human Authentikine® ELISA kits (Proteintech, Rosemont, USA) and Cusabio ELISA kits (Houston, TX, USA) according to the manufacturer's instruction and. Briefly, the supernatants collected from treated and H20-stimulated bj-5ta cells were centrifuged at 13,300 × g for 10 minutes at 4°C, then the pellet and insoluble material were discarded. For the experiments, 100 µL of samples were added to each well and the microplate was incubated for 2 hours at 37°C. After the incubation, the solutions were discarded and each well washed 4 times with 300 µL of Wash Buffer solution, then 100 µL of Detection antibody solution were added to each well and the microplate was incubated for 1 hours at 37°C. […] After 4 washes, the TMB substrate (100 µL/well) was added and reactions were stopped after 20 min with 50 µL of Stop Solution and the absorbance at 450 and 540 nm was measured using the Synergy H1 plate reader (BioTek Instruments).
(§3) In this example, the secretion of collagen and elastin with pea and rice peptides was tested in vitro by an ELISA assay as described above. Thereby, ECM stability is evaluated.
(§4) In this example, the secretion of collagen and elastin with the peptides of Table 1 was tested in vitro by an ELISA assay as described above. Thereby, ECM stability is evaluated.

[10] = test system: elastin; test: ELISA assay, elastin secretion; format: cell-based, human
Protocol: as §2, §3, §4

[11] = 250 µM, screening among CR1, CR2, CP1, CP2, CP4, CP5
[12] = 500 µM, among CR1, CR2, CP1, CP2, CP4, CP5

Compound: SEQ-ID:15: peptide identified by MS in pea hydrolysate; sequence not printed in the text (LDEAAEPAALER; listed as Pisum sativum)
- common sequences in AP pea digested vs. BL pea digested samples [1]: found

Compound: ENIADAAR [CP3, ENIADAAR]
- common sequences in AP pea digested vs. BL pea digested samples [1]: found
- detection in the AP pea and BL pea samples [1]: detected

Compound: DWLLGATGTGK (DVVLLGATGTGK; listed as Oryza sativa) [CR3]
- common sequences in BL rice digested vs. BL rice not digested samples [1]: found

Compound: SEQ-ID:35: peptide identified by MS in pea hydrolysate; sequence not printed in the text (SVFNGEVR; listed as Pisum sativum)
- common sequences in AP pea digested vs. BL pea digested samples [1]: found

Compound: O=C1O[C@H]([C@@H](O)CO)C(O)=C1O [ascorbic acid]
- ABTS radical scavenging activity, dependence on concentration ([2]; pea and rice peptides 0.01 and 0.1 mg/mL, collagen 0.1-20 mg/mL, ascorbic acid 0.0001-0.01 mg/mL): decreasing radical scavenging activity with increasing concentration
- ferric reducing antioxidant power, dependence on concentration [3]: increase
- concentrations with effects on cellular viability ([4]; BJ-5ta cells, 48 h): more than 1 mg/mL

Compound: OO [H2O2]
- concentration up to which no cytotoxic effects ([4]; skin fibroblasts exposed to increasing concentration of H2O2): ≤ 400 µM

Compound: GSRQEEEEDEDEERQPR [CP4, GSRQEEEEDEDEERQPR]
- common sequences in AP pea digested vs. BL pea digested samples [1]: found
- detection in the AP pea and BL pea samples [1]: detected

Compound: SEQ-ID:2: peptide identified by MS in pea hydrolysate; sequence not printed in the text (DTSETWAIR; listed as Pisum sativum)
- common sequences in AP pea digested vs. BL pea digested samples [1]: found
- detection in the AP pea and BL pea samples [1]: detected

Compound: AEDVGEEVER [CR1, AEDVGEEVER]
- common sequences in BL rice digested vs. BL rice not digested samples [1]: found

Compound: AGFAGDDAPR [CR2, AGFAGDDAPR]
- common sequences in BL rice digested vs. BL rice not digested samples [5]: found

Compound: SEQ-ID:12: peptide identified by MS in pea hydrolysate; sequence not printed in the text (SSNNQLDQMPR; listed as Pisum sativum)
- common sequences in AP pea digested vs. BL pea digested samples [1]: found
- detection in the AP pea and BL pea samples [1]: detected

Compound: DWPEWVR [CP2]
- ABTS radical scavenging activity compared with CR1 ([2]; synthesized peptides 1-100 µM): lower than with CR1
- ABTS radical scavenging activity, dependence on concentration ([2]; synthesized peptides 1-100 µM): decreases with increasing concentration
- ABTS radical scavenging activity ([2]; synthesized peptides 1-100 µM, compared to control C): lower than the one of the control C
- ferric reducing antioxidant power compared with CR1 [6]: higher than with CR1
- ferric reducing antioxidant power, dependence on concentration [6]: increases with increasing concentration
- ferric reducing antioxidant power ([6]; compared to control C): higher than the control C
- modulation of collagen protein level [7, 11]: highest modulation of collagen protein level
- modulation of collagen protein level [7, 12]: highest modulation of collagen protein level
- modulation of elastin protein level [8, 11]: highest modulation of elastin protein level
- modulation of elastin protein level compared to CP4 and CP5 ([8]; 500 µM): higher modulation of elastin protein level compared to CP4 and CP5
- modulation of elastin protein level [8, 12]: highest modulation of elastin protein level
- stimulation of collagen secretion [9]: strongest stimulation of collagen secretion
- stimulation of elastin secretion ([10]; CP2 at 100 µM versus other peptides at 500 µM): higher than for the other tested peptides at a concentration of 500 µM
- stimulation of elastin secretion ([10]; peptides of Table 1, BJ-5ta cells): strongest stimulation of elastin secretion
- common sequences in AP pea digested vs. BL pea digested samples [1]: found
- detection in the AP pea and BL pea samples [1]: detected
